Test results reported in patent publication US20180000802A1, “PHARMACEUTICAL COMPOSITION FOR PREVENTION AND TREATMENT OF MENTAL DISEASE WITH ENHANCED NMDAR FUNCTION” (INSTITUTE FOR BASIC SCIENCE, priority 2015, published 2018).
“Also recorded” adds a separate entry of the source.

Key:
IRSp53 deficient mice = experiment: 3-chamber sociability test; type: in vivo, mouse; conditions: memantine 10 mg/kg, MPEP 30 mg/kg; for mice preference (sociability behavior) in the 3-chamber sociability test: intraperitoneal injection 30 minutes before the test, vs saline control; for sedation due to side effects: intraperitoneal injection
Description: For the experiment animals of the present invention, wild-type mice backcrossed into a C57BL/6J background and IRSp53 deficient mice were used. The mice were at 2-4 months of age. In addition, in the present invention, all of the experiments were conducted by maintaining a temperature of 20-22° C. and a humidity of 30-40% while the lights are turned on during 7:00 am to 7:00 pm. As the memantine, which is an NMDAR inhibitor and the MGluR inhibitor, the MPEP indirectly inhibiting the NMDAR is dissolved in physiological saline and used. The memantine is used in a concentration of 10 mg (10 mg/kg) per unit weight, and the MPEP is used in a concentration of 30 mg (30 mg/kg) per unit weight, and the drug was administered to the experiment mice by intraperitoneal injection before 30 minutes of every experiment. NMDAR was tested with respect to the sociability behavior of hyperactivated mice. The 3-chamber sociability test and the direct interaction test, which are the most widely used among the behavioral experiments for identifying sociability behavior of mice. The 3-chamber sociability test was conducted by using a behavior experiment box separated into 3 sections. […] A, B, and C of FIG. 1 show the measurement based on the box bottom, the horizontal side surface and the vertical side surface, respectively, and the experiment box was manufactured exposing that the top so the experiment may be photographed by a camera (FIG. 1). In the basic 3-chamber sociability test, a mouse (stranger) was placed in one side and an object (small toy block) without scent was placed in the other side, and the normal mouse (WT) and the deficient mouse were placed in the middle chamber to observe how much attention was given to the other mouse and explored and time was spent. The detailed experiment method of the present invention is described below. First, the wild-type mouse and the IRSp53 deficient mouse were prepared. In addition, before 10 minutes of the experiment, the mouse to be experimented was put into a soundproof booth in which the experiment was to be conducted. 10 minutes later, the holes in the inner wall were blocked and the mouse was put into the middle area. Another 10 minutes later, the holes were opened, and the mouse was allowed to move freely around the 3 chambers. […] During 10 minutes of experiment where the Stranger 1 and the object were placed, the time of the mouse staying at the two areas were measured. In addition, to measure the time of the actual mice exploring the stranger 1 or the object, the time when the nose of the mouse crosses over a virtual line 2 cm away from the plastic cup was measured. […]

IRSp53 deficient mouse = experiment: Nerve cell firing of the medial prefrontal cortex in the anesthetized mouse; type: in vivo; conditions: IRSp53 deficient mice, urethane anesthesia, 10 mg/kg intraperitoneally, observed after 30 minutes
Description: (§1) The memantine was administered to the IRSp53 deficient mouse, and the synapse of the medial prefrontal cortex was structurally and functionally analyzed. In the experiment, the brain slices were not made, an anesthetic drug (1.5 g/kg) named Urethane was used on the mouse to perform the electrophysiological experiment in a condition in which the neural circuitry in the mouse is maintained, and the electrical signal firing of the nerve cell was observed, In detail, in the experiment, the mouse was anesthetized, a glass electrode for measuring the electrical signal was inserted in the medial prefrontal cortex and the hippocampus, and measured. A and I of FIG. 7 show the positions through which each electrode is inserted. From the result of comparing the nerve cell firing of the medial prefrontal cortex of the IRSp53 deficient mouse, in the IRSp53 deficient mouse, the nerve cell firing of the medial prefrontal cortex decreased. Specifically, in the IRSp53 deficient mouse, the nerve cell firing specific to the excitatory nerve cell decreased (B, C and D of FIG. 7).

[1] = system: wild-type mouse and IRSp53 deficient mouse; experiment: Nerve cell firing of the hippocampus in the anesthetized mouse; type: in vivo; conditions: IRSp53 deficient mouse compared to wild-type mice after memantine injection
Description: as §1

NMDAR [2] = experiment: Electrophysiological measurement of NMDAR-LTD in hippocampal brain slices; type: cell-based; conditions: hippocampal brain slices of IRSp53 deficient mouse, weaker NMDAR-LTD than in normal mouse; memantine treatment
Description: (§2) To observe whether the memantine and the MPEP restore the NMDAR function observed on the hippocampus of the IRSp53 deficient mice to a normal range, the electrical signal flow of the synapses through the NMDAR was measured by the electrophysiological experiment.
When the NMDAR is activated by electrically stimulating the never cell, an ion transferred from the outside of the nerve cell to the inside of the nerve cell through the NMDAR according to the activation level exists, and by the ion concentration difference of the inside and outside of the cell, various proteins inside the cell are also activated, thereby showing electrical reaction of the nerve cell with respect to the stimulation. The state in which this reaction is maintained for 30 minutes or longer is called Long-term potentiation (LTP) and Long-term depression (LTD), and when the NMDAR is intensively activated, the LTP may be induced, and when the NMDAR is weakly activated a long-term weakening, LTD may be induced.
In the present experiment, the Long-term potentiation (LTP) and the Long-term depression experiments were conducted. First, the NMDAR properties of the nerve cell of the IRSp53 deficient mice were electrophysiologically measured. […]

NMDAR [3] = experiment: NMDA/AMPA ratio, electrophysiology in brain slices; type: cell-based; conditions: IRSp53 deficient mouse, ratio increased vs wild-type; MPEP treatment
Description: as §2
In the present experiment, the Long-term potentiation (LTP) and the Long-term depression experiments were conducted. First, the NMDAR properties of the nerve cell of the IRSp53 deficient mice were electrophysiologically measured. The measurement was experimented and conducted by the method disclosed in the paper of Kim M H et al. (Kim, M. H. et al. Enhanced NMDA Receptor-Mediated Synaptic Transmission, Enhanced Long-Term Potentiation, and Impaired Learning and Memory in Mice Lacking IRSp53. J Neurosci 29, 1586-1595, doi:Doi 10.1523/Jneurosci.4306-08.2009 (2009)). The equipment used for the electrophysiological measurement was MultiClamp 700B amplifier and Axopatch 200B of Molecular Devices, and Clampex 9.2 and Clampfit 9 software of the same company were used. During the experiment, BX50WI microscope of Olympus was used.
In the present experiment, first, for all of the electrophysiological experiment, brain slices were made from the brains of the normal mice and the IRSp53 deficient mice. To make the slices, VT1200S model vibratome of Leica was used. […]

Structure (SMILES) | mice preference (sociability behavior) in the 3-chamber sociability test (IRSp53 deficient mice) | sedation due to side effects (IRSp53 deficient mice) | nerve cell firing of the medial prefrontal cortex (IRSp53 deficient mouse) | nerve cell firing change in the hippocampus [1] | NMDAR-LTD (NMDAR [2]) | NMDA/AMPA ratio (NMDAR [3])
CC12CC3CC(C)(C1)CC(N)(C3)C2 [memantine] | improved to a level of the wild-type mice | no sedation due to side effects | the drug showed good effects; also recorded: restored to the normal range | the firing was greater | restored | –
Cc1cccc(C#Cc2ccccc2)n1 [MPEP, 2-Methyl-6-(phenylethynyl)pyridine] | improved to a level of the wild-type mice | no sedation due to side effects | – | – | – | restored to the level of the wild-type mouse
